Source: patent publication US20020115594A1, “Peptide antagonists at glutamate and NMDA receptors” (priority 1993, published 2002)
Ends that are not written are not given here.

Assays:
[1] = system: GnRH secretion by hypothalamic explants; experiment: In vitro GnRH secretion by hypothalamic explants induced by veratridine (static incubation, GnRH radioimmunoassay); format: cell-based, rat
Experimental: (§1) The hypothalamic explants of male Wistar rats were studied individually using a static incubation system described earlier (1-3, 9). The total incubation volume of each chamber (0.5 ml) was sampled and renewed every 7.5 min. Using these fractions, the radioimmunoassay of GnRH was performed as described in detail previously (1, 2). The secretion of GnRH was studied either in the absence of any secretagogue or during the 7.5-min exposure to 5.10^−5 M of veratridine, a depolarizing agent opening the Na^+ channel, or 5.10^−2 M of kainate or N-methyl-D, L-aspartate (NMA) which are agonists of distinct subtypes of glutamate receptors. All these products were bought from Sigma, St Louis, Mo. At 25 and 50 days, veratridine was used repeatedly at 37.5-min intervals. At 15 days, veratridine was used at 52.5-min intervals, i.e. beyond the period of refractoriness caused by the inhibitory autofeedback of GnRH(11). The secretory response of GnRH was calculated as the difference between the concentration measured immediately before and during exposure to the secretagogue.
(§2) We studied the effects of the in-vitro exposure to increasing concentrations of recombinant hIGF-I (Kabi-Pharmacia, Stockholm, Sweden) or its two subproducts, (1-3)IGF-I (Peninsula, Merseyside, England) and (4-70)IGF-I (Gropep, Adelaide, Australia). We also studied the effects of other peptides. The GnRH fragments and analogs included (1-5) GnRH (UCB, Brussels, Belgium), (2-10)GnRH (Sigma, St Louis, Mo., USA) and (1-9)GnRHa (D-TRP^6-PRO^9-N-Ethylamide GnRH) a GnRH agonist kindly provided by Dr J Rivier (The Salk Institute, California, USA). The bovine Proinsulin and its subproducts included the C-peptide of insulin and insulin itself (Novo-Nordisk, Copenhagen, Denmark). Finally, the GRF-related peptides included (1-43) rat GRP (Bachem, Bubendorf, Switzerland), (1-37) human GRF (Peninsula, Merseyside, England) and (1-29)human GRF (Kabi Pharmacia, Stockholm, Sweden). AP-5 (DL-2-amino-5-phosphonovaleric acid, Sigma), a selective antagonist at NMDA receptors and DNQX (6,7-dinitro-quinoxaline-2,3-dione, Tocris Neuramin, Buckhurst Hill, United Kingdom) a selective antagonist at kainate receptors, were also used. The different peptides or antagonists were used for 15 min, i.e. the 7.5-min fraction before and during exposure to veratridine. We also studied the effects of a single s.c. injection of IGF-I or its subproducts in 15 or 50 day-old rats. Then, the animals were sacrificed and the hypothalamic explants studied 25 min after the injection, this interval being required to obtain plasma concentrations of IGF-I sufficient to affect protein metabolism (A. Skottner, personal communication). At that time, the serum was collected for the assay of IGF-I using a method described elsewhere (15) and testosterone was measured as well using a standard RIA (Sorin Biomedica). The concentration of the studied substances resulting in 50% inhibition of the GnRH secretory response (IC50) was calculated as described earlier (3, 9) and the data were compared by covariance analysis. The occurrence of significant GnRH secretory pulses was determined using the pulsar program (2, 3).
FIG. 1. In vitro effects of IGF-I-related peptides on GnRH secretion by hypothalamic explants at 15, 25 and 50 days. GnRH secretory response to depolarizing episodes (veratridine 50 μM for 7.5 min) was studied repeatedly at intervals of 52.5 min at 15 days or 37.5 min at 25 and 50 days. Such study was performed in control conditions or in the presence of increasing concentrations of IGF-I and subproducts, (4-70)IGF-I and (1-3)IGF-I, as well as AP-5, a competitive antagonist at NMDA receptors. Each experiment was preceded and followed by a veratridine challenge in control conditions.

[2] = system: glutamate receptors; experiment: Displacement of tritiated glutamate from hypothalamic membrane preparations; format: binding; conditions: FIG. 9
Source text: Hypothalmic membrane preparations are used to study the displacement of tritiated glutamate binding in the presence of different compounds. Glutamate is able to displace the binding of the tracer at relatively low 10^−6 to 10^−8 concentrations. […] This is because the affinity of tritiated glutamate for the NMDA receptors is less than for the other subtypes of glutamate receptors.

[3] = system: GnRH secretion by hypothalamic explants; experiment: Ex vivo veratridine-induced GnRH secretion by hypothalamic explants after in-vivo s.c. injection; parameters: species or system rat
Source text: as §2, with “3). […]” for “3).”

[4] = system: brain hypoxic-ischemic injury; conditions: reported in refs 22, 23; cited from earlier work
[5] = system: GnRH secretion by hypothalamic explants; experiment: Spontaneous pulsatile secretion of GnRH from hypothalamic explants after s.c. injection; format: in vivo, rat; conditions: s.c. injection of 0.1 mg/kg; 50-day-old rats; data not shown
Source text: as §2, with “The different peptides or antagonists were used for 15 min, i.e. the 7.5-min fraction before and during exposure to veratridine. We also studied the effects of a single s.c. injection of IGF-I or its subproducts in 15 or 50 day-old rats. Then, the animals were sacrificed and the hypothalamic explants studied 25 min after the injection, this interval being required to obtain plasma concentrations of IGF-I sufficient to affect protein metabolism (A. Skottner, personal communication).” left out, “The concentration of the studied substances resulting in 50% inhibition of the GnRH secretory response (IC50) was calculated as described earlier (3, 9) and the data were compared by covariance analysis.” left out, “3). […]” for “3).”

[6] = system: GnRH secretion by hypothalamic explants; experiment: In vitro GnRH secretion by hypothalamic explants induced by veratridine (static incubation, GnRH radioimmunoassay); format: cell-based, rat; remark: listed apart in the source
[7] = system: kainate receptors; experiment: In vitro GnRH secretion by hypothalamic explants induced by kainate; format: cell-based, rat; conditions: 10^−6 M; explants of 50-day-old male rats; FIG. 8
Experimental: as §1, with “At 25 and 50 days, veratridine was used repeatedly at 37.5-min intervals. At 15 days, veratridine was used at 52.5-min intervals, i.e. beyond the period of refractoriness caused by the inhibitory autofeedback of GnRH(11).” left out
(§3) We studied the effects of the in-vitro exposure to increasing concentrations of recombinant hIGF-I (Kabi-Pharmacia, Stockholm, Sweden) or its two subproducts, (1-3)IGF-I (Peninsula, Merseyside, England) and (4-70)IGF-I (Gropep, Adelaide, Australia). […] At that time, the serum was collected for the assay of IGF-I using a method described elsewhere (15) and testosterone was measured as well using a standard RIA (Sorin Biomedica). […] The occurrence of significant GnRH secretory pulses was determined using the pulsar program (2, 3). […]

[8] = system: NMDA receptors; experiment: In vitro GnRH secretion by hypothalamic explants induced by NMA; format: cell-based, rat; conditions: 10^−6 M; explants of 50-day-old male rats; FIG. 8
Experimental: as §1, with “At 25 and 50 days, veratridine was used repeatedly at 37.5-min intervals. At 15 days, veratridine was used at 52.5-min intervals, i.e. beyond the period of refractoriness caused by the inhibitory autofeedback of GnRH(11).” left out
as §3

[9] = in vitro, explants of 50-day-old rats, FIG. 7

(1-43)GRF: full (1-43) sequence of rat Growth Hormone-Releasing Factor (HADAIFTSSYRRILGQLYARKLLHEIMNRQQGERNQEQRSRFN; Somatoliberin; UniProt P09916 31-73, looked up) [reference compound]
effect on veratridine-induced secretion of GnRH [1, 9]: dose-related inhibition

(1-5)GnRH: peptide with a N-terminal glutamic acid which results from the degradation of GnRH in the hypothalamus (QHWSY; ends and bridges not checked; UniProt P01148 24-28, looked up, fragment)
effect on veratridine-induced secretion of GnRH ([1]; FIG. 6): inhibited | displacement of tritiated glutamate binding [2]: act as competitors of glutamate binding

insulin: bovine insulin
effect on veratridine-induced secretion of GnRH [1, 9]: no effects

N[C@@H](CCC(=O)O)C(=O)O [Glutamate]
concentrations displacing the binding of the tracer [2]: 10^−6 to 10^−8

(1-37)GRF: human GRF subproduct, minor physiological form with a C-terminal glutamic acid (YADAIFTNSYRKVLGQLSARKLLQDIMSRQQGESNQE; Somatoliberin; UniProt P01286 32-68, looked up, fragment)
effect on veratridine-induced secretion of GnRH [1, 9]: dose-related inhibition

IGF-I: recombinant hIGF-I (Kabi-Pharmacia)
period of suppression of the GnRH secretory response to veratridine ([3]; s.c. 0.05-0.2 mg/kg, directly related to dose, 50-day-old animals): 47.5 to 107.5 min | ex vivo effectiveness on veratridine-induced GnRH secretion at 15 and 50 days ([3]; s.c. injection, higher doses at 15 days, FIG. 3): only effective at 50 days | period of marked inhibition of in-vitro GnRH secretion in response to veratridine ([3]; single s.c. injection of 0.5 mg/kg, 50-day-old animals): up to 167.5 min | effect on GnRH secretion at very high concentrations ([1]; 10^−4 and 10^−3 M, explants at 15 days, FIG. 4): inhibition of GnRH secretion | effect on veratridine-induced secretion of GnRH ([1]; in vitro, explants at 25 and 50 days): dose-related inhibition | effect on veratridine-induced secretion of GnRH ([1]; in vitro, explants at 15 days): not affected | inhibitory effect on GnRH secretion in the presence of peptidase inhibitors ([1]; three different peptidase inhibitors, FIG. 5): can be prevented | protection against brain hypoxic-ischemic injury [4]: can protect | displacement of tritiated glutamate binding [2]: act as competitors of glutamate binding | period for which spontaneous pulsatile secretion of GnRH is abolished [5]: ~2 h | effect on GnRH secretion from explants of 30-day-old female rats ([6]; data not shown): inhibited

(1-29)GRF: human GRF subproduct retaining GH-releasing activity (YADAIFTNSYRKVLGQLSARKLLQDIMSR; Somatoliberin; UniProt P01286 32-60, looked up, fragment) [reference compound]
effect on veratridine-induced secretion of GnRH [1, 9]: does not affect

CNC(CC(=O)O)C(=O)O (racemic) [NMA, N-methyl-D, L-aspartate, reference compound]
GnRH secretion induced by veratridine 5.10^−5 M ([6]; +NMA 5.10^−4 M alone, 50-day-old male rats, mean, n = 6): 98 % of controls

O=C1N=c2cc([N+](=O)[O-])c([N+](=O)[O-])cc2=NC1=O [DNQX, 6,7-dinitro-quinoxaline-2,3-dione]
effect on kainate-induced secretion of GnRH [7]: inhibitory effects

D-TRP^6-PRO^9-N-Ethylamide GnRH [(1-9)GnRHa, reference compound]
effect on veratridine-induced secretion of GnRH ([1]; FIG. 6): can be inhibited | IC50 ([1]; FIG. 6, read-out: IC50, inhibition of veratridine-induced GnRH secretion): 0.2 nM

NC(CCCP(=O)(O)O)C(=O)O (racemic) [AP-5, DL-2-amino-5-phosphonovaleric acid, reference compound]
effect on veratridine-induced secretion of GnRH ([1]; in vitro, explants at 15, 25 and 50 days): dose-related suppression | effect on secretion of GnRH induced by NMA [8]: inhibitory effects

B1: Proinsulin: bovine Proinsulin (protein, UniProt P01317 25-105, looked up)
pro-form: FVNQHLCGSHLVEALYLVCGERGFFYTPKARREVEGPQVGALELAGGPGAGGLEGPPQKRGIVEQCCASVCSLYQLENYCN
modifications: pro-form
effect on veratridine-induced secretion of GnRH [1, 9]: dose-related suppression
